From article PMC6843571, “Effects of Single Nucleotide Polymorphism Ala270Ser (rs316019) on the Function and Regulation of hOCT2” (Biomolecules, 2019)
Changes are numbered by the printed parent chain. Values joined by “and” are separate entries in the source; they are usually repeats but may differ in a detail not shown here. Equal entries are not always repeated.

How the values were obtained:
hOCT2 Ala270Ser [1] = molecular target: T1, hOCT2 Ala270Ser (Homo sapiens, UniProt O15244); experiment: ASP+ uptake saturation experiments (microfluorimetry), hOCT2 Ala270Ser; format: cell-based; settings: hOCT2 Ala270Ser in stably transfected HEK cells
T1 construct: expressed in transfected cells
T1 sequence (O15244 1-555): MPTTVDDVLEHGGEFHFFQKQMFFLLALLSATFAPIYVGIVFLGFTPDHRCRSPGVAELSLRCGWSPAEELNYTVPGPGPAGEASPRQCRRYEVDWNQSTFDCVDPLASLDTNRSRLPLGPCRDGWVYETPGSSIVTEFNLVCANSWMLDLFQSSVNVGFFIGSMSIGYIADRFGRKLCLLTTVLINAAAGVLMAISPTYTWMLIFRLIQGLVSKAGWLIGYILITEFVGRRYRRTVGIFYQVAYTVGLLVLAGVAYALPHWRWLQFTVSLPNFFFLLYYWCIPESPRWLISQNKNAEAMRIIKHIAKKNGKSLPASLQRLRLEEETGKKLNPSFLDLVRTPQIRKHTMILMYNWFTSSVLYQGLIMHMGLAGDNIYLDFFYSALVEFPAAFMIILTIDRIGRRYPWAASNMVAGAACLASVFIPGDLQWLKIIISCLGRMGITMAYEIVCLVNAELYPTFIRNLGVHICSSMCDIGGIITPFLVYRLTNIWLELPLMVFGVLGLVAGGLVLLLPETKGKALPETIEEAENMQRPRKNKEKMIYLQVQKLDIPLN
Experimental: (§1) Measurement of hOCT2 function in HEK293 cells was performed using microfluorimetry with the fluorescent organic cation 4-(4-(dimethylamino)styryl)-N-methylpyridinium (ASP^+) as the substrate, as described previously in detail. As shown in previous work, this method allows a real-time measurement of the transporter function. The initial rate of ASP^+ uptake was calculated, as it reflects the activity of the transporter.
(§2) Briefly, ASP^+ cellular fluorescence was measured in a microtiterplate reader (Tecan infinite m200; Tecan, Crailsheim, Germany) at 37 °C using an excitation wavelength of 450 nm and an emission of 590 nm. Before fluorescence measurements, cells confluently grown in 96-well plates were washed in ringer-like solution (in mmol/L: 145 NaCl, 1.6 K2HPO4, 0.4 KH2PO4, 5 D-glucose, 1 MgCl2, 1.3 calcium gluconate, pH 7.4). Cell fluorescence was measured before and after ASP^+ addition to the cells. The kinetic characteristics of hOCT WT and hOCT2 Ala270Ser were investigated performing saturation experiments with increasing ASP^+ concentrations. Non-hOCT2-mediated ASP^+ uptake was evaluated in the presence of a huge amount (1 mM) of tetrapentylammonium (TPA^+) and subtracted from the total ASP^+ uptake in order to evaluate the ASP^+ uptake mediated specifically by hOCT2, as shown already in References. […]

hOCT2 WT [2] = molecular target: T2, hOCT2 WT (Homo sapiens, UniProt O15244); experiment: ASP+ uptake saturation experiments (microfluorimetry), hOCT2 WT; format: cell-based; settings: hOCT2 WT in stably transfected HEK cells; specific uptake (minus uptake with 1 mM TPA^+); 37 °C, pH 7.4
T2 construct: expressed in transfected cells
T2 sequence (O15244 1-555 S270A): T1 sequence (O15244 1-555) with S270A
Experimental: as §1, §2

hOCT2 WT [3] = molecular target: T3, hOCT2 WT (Homo sapiens, UniProt O15244, S270A); experiment: as above; format: cell-based; settings: hOCT2 WT in stably transfected HEK cells; specific uptake
T3 construct: expressed in transfected cells
T3 sequence (O15244 1-555 S270A): T1 sequence (O15244 1-555) with S270A
Experimental: as §1, §2

hOCT2 WT [4] = molecular target: T2, hOCT2 WT; experiment: Inhibition of ASP+ uptake by competitors, hOCT2 WT; format: cell-based; settings: 1 µM ASP^+; HEK293 hOCT2 WT cells; 37 °C, pH 7.4; read-out: hOCT2 WT IC50 (apparent affinity, inhibition of ASP^+ uptake)
hOCT2 WT [5] = molecular target: T3, hOCT2 WT; experiment: Inhibition of ASP+ uptake by competitors, hOCT2 WT; format: cell-based; settings: 1 µM ASP^+, hOCT2 WT cells; for hOCT2 WT logIC50 ± SEM: log of IC50, in parenthesis in Table 1
hOCT2 Ala270Ser [6] = molecular target: T1, hOCT2 Ala270Ser; experiment: Inhibition of ASP+ uptake by competitors, hOCT2 Ala270Ser; format: cell-based; settings: 1 µM ASP^+; for IC50: HEK293 hOCT2 Ala270Ser cells, 37 °C, pH 7.4, read-out: hOCT2 Ala270Ser IC50 (apparent affinity, inhibition of ASP^+ uptake); for hOCT2 Ala270Ser logIC50 ± SEM: log of IC50, in parenthesis in Table 1
hOCT2 Ala270Ser cells = experiment: Cytoviability (MTT) assay, hOCT2 Ala270Ser cells; format: cell-based, human
Experimental: (§3) The cytotoxicity of cisplatin was evaluated using a modified 3-(4,5-dimethylthiazol-2-yl)-2,5-diphenyltetrazoliumbromid (MTT) assay. The HEK293 cells grown for 24 hours in 96-well plates were incubated for 10 min at 37 °C with different concentrations of cisplatin (Calbiochem, Merck Chemicals GmbH, Darmstadt, Germany) dissolved in a ringer-like solution. The cisplatin solution was then removed, and the cells were grown in fresh medium for 48 hours. Afterwards, the cells were incubated with 10 µL MTT (Sigma, Steinheim, Germany) solution containing 5 mg/mL of the dye for three hours at 37 °C. Then, MTT was removed, and the cells were lysed with a solution containing 10% (w/v) sodium dodecyl sulfate and 40% (v/v) dimethylformamide. After 90 min, absorption was measured at 570 nm in a multiplate reader (Tecan infinite m200, Tecan, Tecan Group Ltd., Crailsheim, Germany).

hOCT2 WT cells = experiment: Cytoviability (MTT) assay, hOCT2 WT cells; format: cell-based, human
Experimental: as §3

hOCT2 WT [7] = molecular target: T2, hOCT2 WT; experiment: Cellular platinum accumulation by ICP-MS, hOCT2 WT cells; format: cell-based; settings: 2 min incubation with 100 µM cisplatin, mean ± SEM
Experimental: (§4) Intracellular cisplatin concentrations were determined using inductively coupled plasma mass spectrometry (ICP-MS), which provides information on the elemental concentration in samples [27, 28], as described before. To do this, cells were grown for five days on 6-well plates and incubated at 37 °C for 2 min with 2 mL of 100 µM cisplatin freshly prepared in a ringer-like solution. After incubation, cells were rapidly washed with ice-cold PBS and then hypotonically lysed using distilled water and sonication for 15 min. For the ICP-MS analysis, 100 µL of cell lysates together with 100 µL of rhodium standard (Rh 1000 µg/mL, Scpscience, Marktoberdorf, Germany) were mixed with 9.8 mL 2% HNO3. Standard platinum for ICP (Merck) was diluted in 2% HNO3, and linear regression was performed (r² = 0.998 and 0.999). Samples were analyzed using ICP-MS iCap QC, autosampler AccelaAS (Thermo Fisher Scientific, Bremen, Germany) and Qtegra ISDS software (Thermo Fisher Scientific). The protein content of lysed cells was determined by absorption measurements using PicoDrop Pico 1000 (PicoDrop, Saffron Walden, UK).

hOCT2 Ala270Ser [8] = molecular target: T1, hOCT2 Ala270Ser; experiment: Cellular platinum accumulation by ICP-MS, hOCT2 Ala270Ser cells; format: cell-based; settings: 2 min incubation with 100 µM cisplatin, mean ± SEM
Experimental: as §4

[9] = system: hOCT2 Ala270Ser-mediated ASP^+ uptake; experiment: Rapid regulation of ASP+ uptake, hOCT2 Ala270Ser cells; format: cell-based, human; settings: 1 µM ASP^+, compared to control
Experimental: (§5) Moreover, since it is known that the activity of hOCT2 can be regulated by several kinases, the effect of the Ala270Ser substitution on regulation by calmodulin and p56^lck tyrosine kinase of hOCT2 was investigated. The regulation by these two pathways is conserved along all the OCTs. To study the rapid regulation of hOCT2, cells were incubated for 10 min at 37 °C with calmidazolium (5 µM), a potent specific inhibitor of calmodulin [24], with aminogenistein (10 µM), a specific inhibitor of p56^lck tyrosine kinase, or with ringer-like solution as a control. Regulators were dissolved in ethanol (calmidazolium) or DMSO (aminogenistein) at a concentration that had no impact on ASP^+ transport. After incubation, fluorescence measurements were carried out with 1 µM ASP^+.

[10] = system: hOCT2 WT-mediated ASP^+ uptake; experiment: Rapid regulation of ASP+ uptake, hOCT2 WT cells; format: cell-based, human; settings: 1 µM ASP^+, compared to control
Experimental: as §5

[11] = 10 min incubation, then 48 hours in fresh medium
[12] = read-out: EC50 (concentration giving 50% of the toxic effect), MTT assay, 10 min incubation, then 48 hours in fresh medium
[13] = 10 min incubation with 10 µM aminogenistein
[14] = 10 min incubation with 5 µM calmidazolium

Structure (SMILES)	IC50 (hOCT2 WT [4])	hOCT2 WT logIC50 ± SEM (hOCT2 WT [5])	IC50 (hOCT2 Ala270Ser [6])	hOCT2 Ala270Ser logIC50 ± SEM (hOCT2 Ala270Ser [6]; hOCT2 Ala270Ser cells)	also measured
CN(C)c1ccc(C=Cc2cc[n+](C)cc2)cc1 [ASP^+, 4-(4-(dimethylamino)styryl)-N-methylpyridinium]	–	–	–	–	Vmax of ASP^+ uptake (hOCT2 Ala270Ser [1]; specific uptake): 484 ± 50 arbitrary units/µg protein s^2; Km (hOCT2 Ala270Ser [1]; specific uptake (minus uptake with 1 mM TPA^+), 37 °C, pH 7.4): 4.9 ± 1.6 µM; Km (hOCT2 WT [2]): 4 ± 1 µM; Vmax of ASP^+ uptake (hOCT2 WT [3]): 516 ± 23 arbitrary units/µg protein s^2
N.N.[Cl][Pt][Cl] [Cisplatin, cisplatin]	16 µM	−4.80 ± 0.10	9 µM	−5.04 ± 0.11	logEC50 ± SEM, MTT assay (hOCT2 Ala270Ser cells; [11]): −4.48 ± 0.05; EC50 (hOCT2 Ala270Ser cells; [12]): 33 µM; logEC50 ± SEM, MTT assay (hOCT2 WT cells; [11]): −4.89 ± 0.11; EC50 (hOCT2 WT cells; [12]): 13 µM; Cellular platinum concentration (hOCT2 WT [7]): 264 ± 10 µg Pt/g protein; Cellular platinum concentration (hOCT2 Ala270Ser [8]): 221 ± 10 µg Pt/g protein
NCCc1c[nH]cn1 [Histamine, histamine]	4600 µM	−2.33 ± 0.06	4000 µM	−2.40 ± 0.07	–
Cc1ncc(C[n+]2csc(CCO)c2C)c(N)n1 [Thiamin, thiamine]	87 µM	−4.06 ± 0.05	106 µM	−3.98 ± 0.06	–
Nc1ccc(-c2cc(=O)c3cc(O)ccc3o2)cc1 [aminogenistein]	–	–	–	–	Effect on hOCT2 Ala270Ser-mediated ASP^+ uptake (inhibition of p56^lck tyrosine kinase) [9, 13]: strong significant inhibition; Effect on hOCT2 WT-mediated ASP^+ uptake (inhibition of p56^lck tyrosine kinase) [10, 13]: strong significant inhibition
Clc1ccc(C(c2ccc(Cl)cc2)n2cc[n+](CC(OCc3ccc(Cl)cc3Cl)c3ccc(Cl)cc3Cl)c2)cc1 (stereo not drawn) [calmidazolium]	–	–	–	–	Effect on hOCT2 Ala270Ser-mediated ASP^+ uptake (inhibition of calmodulin) [9, 14]: strong significant inhibition; Effect on hOCT2 WT-mediated ASP^+ uptake (inhibition of calmodulin) [10, 14]: strong significant inhibition

More lines, main results first:

IC50 (hOCT2 WT [4])	hOCT2 WT logIC50 ± SEM (hOCT2 WT [5])	IC50 (hOCT2 Ala270Ser [6])	hOCT2 Ala270Ser logIC50 ± SEM (hOCT2 Ala270Ser [6]; hOCT2 Ala270Ser cells)	Structure (SMILES)	also measured
23 µM	−4.64 ± 0.12	40 µM	−4.40 ± 0.19	CN/C(=N/CCSCc1nc[nH]c1C)NC#N [Cimetidine, cimetidine]	–
18600 µM	−1.73 ± 0.04	9800 µM	−2.01 ± 0.06	CN1CC(=O)NC1=N [Creatinine, creatinine]	–
–	−2.71 ± 0.06	–	–	CN(C)CCCN1c2ccccc2CCc2ccccc21 [Imipramine, imipramine]	–
900 µM and 868 µM	−3.06 ± 0.05	800 µM and 848 µM	−3.07 ± 0.05	CN(C)C(=N)N=C(N)N [Metformin, metformin]	–
~5400 µM	−2.27 ± 0.28	~2400 µM	−2.61 ± 0.28	N[C@@H](Cc1c[nH]c2ccccc12)C(=O)O [Tryptophan, tryptophan]	Inhibition of ASP^+ uptake (in words) (hOCT2 WT [5]): inhibit a small part of the ASP^+ uptake only at very high concentrations; Inhibition of ASP^+ uptake (in words) (hOCT2 Ala270Ser [6]; hOCT2 Ala270Ser cells): inhibit a small part of the ASP^+ uptake only at very high concentrations
